For 22 molecules, TGI and GI50 results are on record in PubChem BioAssay (NCI).

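1) Cells in 96-well plates. 2) Compound, 48 h, 5 concentrations. 3) Linear interpolation between surrounding doses. 4) Unreached endpoint = highest concentration. At the GI50, growth is halved. TGI marks complete inhibition of growth.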

Among the test systems are SN12C renal; SF-539 CNS; HT29 colon; SF-295 CNS; HOP-92 NSCLC; A498 renal; SNB-75 CNS; TK-10 renal; SK-MEL-2 melanoma.
Common to all, as to assay: inhibition of tumour cell growth, NCI panel, 48 h

Consider `NC(=S)N/N=C/C(O[C@@H](/C=N/NC(N)=S)CO)n1cnc2c(N)ncnc21` (stereo partly drawn), for which the TGI with SN12C renal, with SF-539 CNS, in the assay on HT29 colon, in the assay with SF-295 CNS, in the assay on HOP-92 NSCLC and with A498 renal was greater than 100 µM in each case. Moreover, the TGI in the assay on SNB-75 CNS and with TK-10 renal was greater than 100 µM each time.
With `COc1ccc(C(=O)C(c2ccc(OC)cc2)C2(O)C(=O)Nc3c(Cl)cc(Cl)cc32)cc1` (stereo not drawn), the TGI with SN12C renal turned out to be 35.6 µM; in the assay with HT29 colon, 42.4 µM; in the assay with SF-295 CNS, 39.9 µM; in the assay on HOP-92 NSCLC, 33.2 µM; with SNB-75 CNS, 58.6 µM; in the assay on SK-MEL-2 melanoma it was 31.5 µM. In addition, the TGI with TK-10 renal turned out to be 55 µM.
In the case of `O=C(CC(=O)N1N=C(n2ccc3ccccc32)CC1c1ccccc1)Nc1ccccc1Cl` (stereo not drawn), the TGI in the assay on SN12C renal, with SF-539 CNS, in the assay on HT29 colon, with SF-295 CNS, with HOP-92 NSCLC and in the assay with A498 renal was greater than 100 µM each time. Further, the TGI in the assay on SNB-75 CNS, in the assay on SK-MEL-2 melanoma and in the assay with TK-10 renal was greater than 100 µM in each case.
Turning to `C=C1C2CCCC1C1(S(C)(=O)=O)CCCCC21O` (stereo not drawn), the TGI in the assay with SN12C renal, in the assay on SF-539 CNS, in the assay on HT29 colon, in the assay with SF-295 CNS, with SNB-75 CNS and in the assay with SK-MEL-2 melanoma was greater than 100 µM in each case. The molecule also yielded a TGI in the assay on TK-10 renal greater than 100 µM.
On to `CCP(C)(=O)CC`, for which the TGI with SN12C renal, with SF-539 CNS, in the assay on HT29 colon, in the assay with SF-295 CNS, in the assay with HOP-92 NSCLC and in the assay on SNB-75 CNS was greater than 100 µM in each case. Further, the TGI in the assay on SK-MEL-2 melanoma and with TK-10 renal was greater than 100 µM in each case.
Turning to `[CH3][Ge]([CH3])([CH2]CC#N)[S]c1ccccc1`, the GI50 was 15.2 µM in the assay with SN12C renal; 12.9 µM in the assay with SF-539 CNS; 17.8 µM in the assay on HT29 colon; 16.5 µM in the assay with SF-295 CNS; 31.2 µM in the assay on HOP-92 NSCLC; 23.4 µM with SNB-75 CNS. Besides, the GI50 in the assay on SK-MEL-2 melanoma was 14.7 µM; in the assay on TK-10 renal it was 24.4 µM. Further, the TGI in the assay on SN12C renal stood at 31.6 µM; with SF-539 CNS, 27.8 µM; in the assay on HT29 colon, 32.9 µM; in the assay on SF-295 CNS it was 41.5 µM; with HOP-92 NSCLC, 79.7 µM; in the assay on SNB-75 CNS it was 74 µM. Besides, the TGI with SK-MEL-2 melanoma was 39.6 µM; in the assay with TK-10 renal, 72.8 µM.
For the molecule `COc1c(CC(C)=O)c2ccccc2n1C(C)=O`, the TGI in the assay with SN12C renal, in the assay with SF-539 CNS, in the assay on HT29 colon, in the assay on SF-295 CNS, in the assay with HOP-92 NSCLC and with A498 renal was greater than 100 µM in each case. Also, the TGI with SNB-75 CNS and in the assay on SK-MEL-2 melanoma was greater than 100 µM each time.
Take `c1ccc(-c2sc(-c3ccccc3)c3c2C(c2ccccc2)c2c(-c4ccccc4)sc(-c4ccccc4)c2C3c2ccccc2)cc1` (stereo not drawn): the TGI in the assay on SN12C renal, in the assay with SF-539 CNS, in the assay on HT29 colon, with SF-295 CNS, in the assay on HOP-92 NSCLC and in the assay on A498 renal was greater than 100 µM in each case. For the same molecule, the TGI with SNB-75 CNS and with TK-10 renal was greater than 100 µM in each case.
As for `O=C(Nc1ccc(Nc2ccc(NC(=O)c3ccccc3)c3c2C(=O)c2ccccc2C3=O)c2c1C(=O)c1ccccc1C2=O)c1ccccc1`, the TGI with SN12C renal, in the assay with SF-539 CNS, in the assay on A498 renal, with SNB-75 CNS, with SK-MEL-2 melanoma and with TK-10 renal was greater than 100 µM each time.
As for `Cc1cc(C)c([O-])c(-[n+]2c(-c3ccccc3)cc(-c3ccccc3)cc2-c2ccccc2)c1`, the TGI with SN12C renal was 18.5 µM; in the assay with SF-539 CNS, 26.9 µM; with HT29 colon, 12.2 µM; in the assay on SF-295 CNS it was 17.1 µM; with HOP-92 NSCLC, 5.48 µM; in the assay on SNB-75 CNS, 17.5 µM. The TGI amounted to 10.2 µM with SK-MEL-2 melanoma and 19.4 µM in the assay on TK-10 renal.
Regarding `Oc1ccc(I)c2cccnc12`, the TGI in the assay with SN12C renal is greater than 100 µM; in the assay with SF-539 CNS, greater than 100 µM; with HT29 colon it was greater than 100 µM; in the assay with SF-295 CNS, 30.1 µM; in the assay with HOP-92 NSCLC, greater than 100 µM; in the assay with A498 renal it was greater than 100 µM. Moreover, the TGI is 71.4 µM with SK-MEL-2 melanoma and greater than 100 µM in the assay on TK-10 renal.
`O=c1[nH]c(-c2ccccc2)nc2cc([N+](=O)[O-])c(/C(Cl)=C/c3ccccc3)cc12`: the TGI was greater than 100 µM with SN12C renal; greater than 100 µM in the assay with SF-539 CNS; 53.5 µM with SF-295 CNS; 35.6 µM with HOP-92 NSCLC; 53.1 µM in the assay on SNB-75 CNS; 71.8 µM with SK-MEL-2 melanoma. The molecule also had a TGI in the assay with TK-10 renal of 76.6 µM.
Take `Cc1c(C(=O)/C=C/c2ccc([N+](=O)[O-])cc2)[n+](=O)c2ccccc2n1[O-]`: the TGI in the assay on SN12C renal, in the assay on SF-539 CNS, in the assay with HT29 colon, in the assay on SF-295 CNS, in the assay on HOP-92 NSCLC and in the assay with A498 renal was greater than 100 µM throughout. Further, the TGI with SNB-75 CNS and in the assay with TK-10 renal was greater than 100 µM in each case.
Regarding `NC(N)=NCCCC(Nc1c2ccccc2nc2ccccc12)C(=O)O` (stereo not drawn), the TGI in the assay with SN12C renal, with SF-539 CNS, in the assay on HT29 colon, with SF-295 CNS, in the assay on HOP-92 NSCLC and with SNB-75 CNS was greater than 100 µM each time. Moreover, the TGI with SK-MEL-2 melanoma and in the assay on TK-10 renal was greater than 100 µM throughout.
With `COC1(OC)CCC2(C)OC(c3ccccc3)C1O2` (stereo not drawn), the TGI in the assay on SN12C renal, with SF-539 CNS, in the assay with HT29 colon, with SF-295 CNS, with SNB-75 CNS and in the assay with SK-MEL-2 melanoma was greater than 100 µM each time. In the assay on TK-10 renal, this molecule gave a TGI greater than 100 µM.
As for `CC(=O)[CH-]C(=O)c1ccccc1.CC(=O)[CH-]C(=O)c1ccccc1.CC(=O)[CH-]C(=O)c1ccccc1.[Cl-].[Hf+4]`, the GI50 is 28.8 µM in the assay with SN12C renal; 19.1 µM in the assay on HT29 colon; 19.8 µM with SF-295 CNS; 18.9 µM with HOP-92 NSCLC; 25.5 µM in the assay with A498 renal; 22.2 µM in the assay on SNB-75 CNS. Moreover, the GI50 is 18.1 µM in the assay on SK-MEL-2 melanoma and 39 µM in the assay on TK-10 renal. The TGI in the assay on SN12C renal was greater than 100 µM; in the assay with HT29 colon, greater than 100 µM; in the assay with SF-295 CNS it was greater than 100 µM; in the assay on HOP-92 NSCLC it was 50.4 µM; in the assay with A498 renal, 75.5 µM; in the assay on SNB-75 CNS, 70.4 µM. Besides, the TGI in the assay on SK-MEL-2 melanoma is 53.2 µM; with TK-10 renal, greater than 100 µM.
Turning to `C/C(=C\CNc1ncnc2c1ncn2C1CCCCO1)COP(=O)(O)O` (stereo not drawn), the TGI in the assay with SN12C renal, in the assay on SF-539 CNS, in the assay with HT29 colon, in the assay on SF-295 CNS, with HOP-92 NSCLC and in the assay with SNB-75 CNS was greater than 100 µM each time. For the same molecule, the TGI with SK-MEL-2 melanoma and in the assay on TK-10 renal was greater than 100 µM throughout.
`COC12OCCN(C)C1=CC(=O)C1N=NCC12` (stereo not drawn): the TGI in the assay on SN12C renal, in the assay with SF-539 CNS, with HT29 colon, in the assay on SF-295 CNS, in the assay with HOP-92 NSCLC and in the assay with A498 renal was greater than 100 µM in each case. Besides, the TGI in the assay on SNB-75 CNS and in the assay with TK-10 renal was greater than 100 µM in each case.
Take `COC(=O)C1=C(C)N(NC(N)=O)C2(N)N(NC(N)=O)C(C)=C(C(=O)OC)C12C#N` (stereo not drawn): the TGI in the assay on SN12C renal, in the assay with SF-539 CNS, in the assay with HT29 colon, in the assay with SF-295 CNS, in the assay on HOP-92 NSCLC and in the assay on A498 renal was greater than 100 µM each time. For the same molecule, the TGI in the assay with SK-MEL-2 melanoma and with TK-10 renal was greater than 100 µM throughout.
`CC(C)(C)c1cc(Cc2ccc(S(C)(=O)=O)cc2)c(O)c(C(C)(C)C)c1`: the TGI turned out to be 28.6 µM with SN12C renal; 30.7 µM in the assay on SF-539 CNS; 28.6 µM in the assay on HT29 colon; 25.8 µM with SF-295 CNS; 30.3 µM with A498 renal; 28 µM with SNB-75 CNS. In addition, the TGI came to 30.4 µM in the assay with SK-MEL-2 melanoma and 31.7 µM with TK-10 renal.
Turning to `CCOC(=O)C1(C)C2=CC=C(O2)C(C)(C)C2=CC=C(O2)C(C)(C)C2=CC=C(O2)C(C)(C)C2=CC=C1O2`, the TGI in the assay with SN12C renal, in the assay with SF-539 CNS, with HT29 colon, in the assay on SF-295 CNS, in the assay with HOP-92 NSCLC and with A498 renal was greater than 100 µM each time. Further, the TGI in the assay on SK-MEL-2 melanoma and in the assay with TK-10 renal was greater than 100 µM throughout.
Turning to `CN1C(=O)[C@@H](CC2CCCC2)N(C2CCCC2)c2nc(Nc3cc(Cl)c(O)c(Cl)c3)ncc21`, the GI50 with SN12C renal is 21.4 µM; with SF-539 CNS, 19.8 µM; with HT29 colon, 26.7 µM; in the assay on SF-295 CNS it was 23.3 µM; with HOP-92 NSCLC it was 13.6 µM; with A498 renal it was 35.4 µM. Further, the GI50 in the assay with TK-10 renal is 27.2 µM. For the same molecule, the TGI with SN12C renal is greater than 100 µM; with SF-539 CNS, greater than 100 µM; with HT29 colon it was 88.3 µM; with SF-295 CNS, 81.9 µM; in the assay with HOP-92 NSCLC, 66.7 µM; in the assay with A498 renal it was greater than 100 µM. Moreover, the TGI in the assay with TK-10 renal was greater than 100 µM.
